Laboratory results published in PubChem BioAssay AID328 (DTP/NCI, 2004).
Values joined by “and” are separate entries in the source; they are usually repeats but may differ in a detail not shown here. Equal values may be shown once. Toxic doses and inconclusive results are not listed. Rule for the calls: active = survival T/C of 150% or more; inactive = T/C below 125% in these data.

Test system: BDF1 mice, P388 leukemia ip, median survival T/C
Test: NCI In Vivo Anticancer Drug Screen. Data for tumor model P388 Leukemia (intraperitoneal) in B6D2F1 (BDF1) mice
Conditions: endpoint: median survival time, higher = longer survival
How it was run: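 Compound-treated tumour-bearing mice were compared with vehicle-treated controls. Survival was recorded, and the value is the treated-group measurement divided by the control-group measurement (T/C).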

[1] = dose: 12.5 mg/kg/injection, schedule: Q04DX003 (ip), vehicle: Klucel (hydroxypropylcellulose) (HPC)
[2] = dose: 25.0 mg/kg/injection, schedule: Q04DX003 (ip), vehicle: Klucel (hydroxypropylcellulose) (HPC)
[3] = dose: 50.0 mg/kg/injection, schedule: Q04DX003 (ip), vehicle: Klucel (hydroxypropylcellulose) (HPC)
[4] = dose: 50.0 mg/kg/injection, schedule: Q01DX009 (ip), vehicle: saline with Tween-80
[5] = dose: 100.0 mg/kg/injection, schedule: Q01DX009 (ip), vehicle: saline with Tween-80

Measured: T/C

CN1C(C)(C)CC(O)(C(O)(c2ccccc2)c2ccccc2)CC1(C)C
inactive: [1] 109 % of control | [2] 109 % of control | [3] 113 % of control

COc1ccc2c(c1OC)C1(CCN(C)C)CC(=O)CCC1C=C2 (stereo not given)
inactive: dose: 6.25 mg/kg/injection, schedule: Q01DX009 (ip), vehicle: Klucel (hydroxypropylcellulose) (HPC) 90 % of control | dose: 12.5 mg/kg/injection, schedule: Q01DX009 (ip), vehicle: Klucel (hydroxypropylcellulose) (HPC) 105 % of control | [1] 86 % of control | dose: 25.0 mg/kg/injection, schedule: Q01DX009 (ip), vehicle: Klucel (hydroxypropylcellulose) (HPC) 100 % of control | [2] 108 % of control | dose: 35.0 mg/kg/injection, schedule: Q01DX009 (ip), vehicle: Klucel (hydroxypropylcellulose) (HPC) 113 % of control | [3] 100 % of control | dose: 55.0 mg/kg/injection, schedule: Q01DX009 (ip), vehicle: Klucel (hydroxypropylcellulose) (HPC) 118 % of control | dose: 80.0 mg/kg/injection, schedule: Q01DX009 (ip), vehicle: Klucel (hydroxypropylcellulose) (HPC) 118 % of control | dose: 100.0 mg/kg/injection, schedule: Q04DX003 (ip), vehicle: Klucel (hydroxypropylcellulose) (HPC) 95 % of control | dose: 120.0 mg/kg/injection, schedule: Q01DX009 (ip), vehicle: Klucel (hydroxypropylcellulose) (HPC) 100 % of control | dose: 180.0 mg/kg/injection, schedule: Q01DX009 (ip), vehicle: Klucel (hydroxypropylcellulose) (HPC) 108 % of control

Cc1ccc(S(=O)(=O)NC(=O)Oc2nc3cc(Cl)ccc3o2)cc1
inactive: [4] 99 % of control | [5] 114 % of control | dose: 200.0 mg/kg/injection, schedule: Q01DX009 (ip), vehicle: saline with Tween-80 96 % of control

N[C@@H](Cc1ccc(N(CCCl)CCCl)cc1)C(=O)O
inactive: dose: 4.0 mg/kg/injection, schedule: Q01DX009 (ip), vehicle: saline 113 % of control | dose: 4.0 mg/kg/injection, schedule: Q01DX010 (ip), vehicle: saline 113 % of control | dose: 40.0 mg/kg/injection, schedule: Q04DX003 (ip), vehicle: water 91 % of control and 96 % of control
active: dose: 0.5 mg/kg/injection, schedule: Q01DX009 (ip), vehicle: saline 167 % of control | dose: 0.5 mg/kg/injection, schedule: Q01DX010 (ip), vehicle: saline 227 % of control | dose: 1.0 mg/kg/injection, schedule: Q01DX009 (ip), vehicle: saline 245 % of control and 188 % of control | dose: 1.0 mg/kg/injection, schedule: Q01DX010 (ip), vehicle: saline 277 % of control | dose: 2.0 mg/kg/injection, schedule: Q01DX009 (ip), vehicle: saline 237 % of control and 254 % of control | dose: 2.0 mg/kg/injection, schedule: Q01DX010 (ip), vehicle: saline 300 % of control | dose: 2.5 mg/kg/injection, schedule: Q04DX003 (ip), vehicle: water 205 % of control | dose: 3.6 mg/kg/injection, schedule: Q01DX001 (ip), vehicle: saline 150 % of control and 181 % of control | dose: 4.0 mg/kg/injection, schedule: Q04DX003 (ip), vehicle: Klucel (hydroxypropylcellulose) (HPC) 236 % of control | dose: 6.0 mg/kg/injection, schedule: Q01DX001 (ip), vehicle: saline 167 % of control and 172 % of control | dose: 10.0 mg/kg/injection, schedule: Q01DX001 (ip), vehicle: Klucel (hydroxypropylcellulose) (HPC) 227 % of control and 245 % of control | dose: 12.5 mg/kg/injection, schedule: Q01DX001 (ip), vehicle: Klucel (hydroxypropylcellulose) (HPC) 240 % of control and 279 % of control | dose: 15.0 mg/kg/injection, schedule: Q01DX001 (ip), vehicle: Klucel (hydroxypropylcellulose) (HPC) 295 % of control and 298 % of control | dose: 17.5 mg/kg/injection, schedule: Q01DX001 (ip), vehicle: Klucel (hydroxypropylcellulose) (HPC) 286 % of control and 318 % of control | dose: 20.0 mg/kg/injection, schedule: Q01DX001 (ip), vehicle: Klucel (hydroxypropylcellulose) (HPC) 254 % of control and 259 % of control

[O-][n+]1c(CCl)nc2ccccc2c1-c1ccccc1F
inactive: [4] 118 % of control | [5] 105 % of control

Nc1ccccc1.[C-]#[O+].[C-]#[O+].[C-]#[O+].[C-]#[O+].[C-]#[O+].[Cr]
inactive: dose: 2.5 mg/kg/injection, schedule: Q01DX009 (ip), vehicle: saline 91 % of control | dose: 5.0 mg/kg/injection, schedule: Q01DX009 (ip), vehicle: saline 101 % of control
